Results: patent US12691070B2, “Cationic lipids and preparation method thereof” (RiboX Therapeutics HK Limited, priority 2023, dated 2026)

Columns and labels:
[1] = tested on: BALB/C mice; assay: In vivo expression, whole-body luminescence (IVIS)
Protocol: 6-8 week old, female BALB/C mice were injected with 0.05 mg*kg-1 of RNA-LNPs encoding for firefly-luciferase by intravenous injection. At 6 hours post injection, animals were intraperitoneally injected with 15 mg/ml of Luciferin substrate and whole-body luminescence was determined by a bioluminescent in vivo imaging system (IVIS).

[2] = tested on: Hep G2 cells; assay: In vitro toxicity (CellTiter-Glo cell viability), Hep G2; format: cell-based;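 note: percent of untreated cells luminescence signal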
Protocol: (§1) RAW 264.7 and Hep G2 cells were transfected with 1 μg/mL RNA-LNPs. At 72 hours post transfection, cell viability was determined with the CellTiter-Glo® reagent kit, according to the kit protocol, measured by a luminometer.
(§2) The cell viability was calculated according to the following formula: […]

[3] = tested on: RAW 264.7 cells; assay: In vitro toxicity (CellTiter-Glo cell viability), RAW 264.7; format: cell-based;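 note: percent of untreated cells luminescence signal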
Protocol: as §1, §2

[4] = RNA encapsulation efficacy by Quant-IT Ribogreen kit; format: physicochemical; conditions: for Encapsulation Efficiency %: LNP with cirRNA (SEQ ID NO: 1)
Protocol: (§3) Ionizable lipid, DSPC, Cholesterol and DMG-PEG 2000 were mixed at a molar ratio of 50:10:38.5:1.5 in absolute ethanol. Circular RNA and linear mRNA payloads were suspended in 25 mM Acetate Buffer (pH 4.5). To form LNPs, three volumes of luciferase encoding RNA, in the form of cirRNA (SEQ ID NO:1) and mRNA (SEQ ID NO:2) respectively, were mixed with one volume of lipids in ethanol solution by microfluidic mixing with the Nanoassemblr Ignite (Precision Nanosystems) at a flow rate of 12 ml/min. The molar ratio of ionizable lipid to ribonucleotide was 15 or 6. The final lipid concentration in solution ranged from 1.5 mM to 6 mM. After encapsulation, the particles were dialyzed twice against PBS.
(§4) The LNP size and polydispersity index (PDI), determined by dynamic light scattering (DLS), and zeta potential were measured by a Zetasizer machine (Malvern). RNA concentration and encapsulation efficacy were analyzed by the Quant-IT Ribogreen kit by calculating the percentage encapsulation at 100%−(RNA-LNPs/RNA-LNPs with Triton X-100).

[5] = LNP size and polydispersity index (PDI) by dynamic light scattering; format: physicochemical; conditions: for Size: in nm (unit assumed)
Protocol: as §3, §4

[6] = tested on: Hep G2 cells; assay: In vitro expression of firefly-luciferase, Hep G2; format: cell-based
Protocol: (§5) RAW 264.7 and Hep G2 cells were transfected with 100 ng/mL of RNA-LNPs encoding for firefly-luciferase. At 72 hours post transfection, the cells were washed and lysed. The luciferase expression was determined in the cell lysates with the luciferase assay reagent kit (Promega), according to the kit protocol, luciferase activity was measured by a luminometer.

[7] = LNP zeta potential (Zetasizer); format: physicochemical
Protocol: as §3, §4

[8] = tested on: RAW 264.7 cells; assay: In vitro expression of firefly-luciferase, RAW 264.7; format: cell-based
Protocol: as §5

[9] = cirRNA (SEQ ID NO: 1) LNPs, BALB/C mice
[10] = cirRNA (SEQ ID NO: 1) LNPs, Hep G2 cells
[11] = cirRNA (SEQ ID NO: 1) LNPs, RAW 264.7 cells
[12] = cirRNA (SEQ ID NO: 1) LNPs, firefly-luciferase luminescence, Hep G2 cells
[13] = cirRNA (SEQ ID NO: 1) LNPs, firefly-luciferase luminescence, RAW 264.7 cells
[14] = mRNA (SEQ ID NO: 2) LNP, 1 μg/mL, 72 hours post transfection
[15] = mRNA (SEQ ID NO: 2) LNP, 100 ng/mL, 72 hours post transfection, luciferase activity

Compound | In vivo Expression (Whole Body) [1, 9] | In vitro Viability HepG2 [2, 10] [%] | In vitro Viability RAW [3, 11] [%] | Encapsulation Efficiency % [4] [%] | PDI ([5]; LNP with cirRNA (SEQ ID NO: 1)) | Size ([5]; LNP with cirRNA (SEQ ID NO: 1)) | In vitro Expression HepG2 [6, 12] | Zeta (mV) ([7]; LNP with cirRNA (SEQ ID NO: 1)) | In vitro Expression RAW [8, 13] | In vivo Expression (Whole Body) ([1]; mRNA (SEQ ID NO: 2) LNP, 0.05 mg*kg-1 intravenous, 6 hours post injection) | In vitro Viability HepG2 [2, 14] [%] | In vitro Viability RAW [3, 14] [%] | Encapsulation Efficiency ([4]; LNP with mRNA (SEQ ID NO: 2)) [%] | PDI ([5]; LNP with mRNA (SEQ ID NO: 2)) | Size ([5]; LNP with mRNA (SEQ ID NO: 2)) | In vitro Expression HepG2 [6, 15] | Zeta (mV) ([7]; LNP with mRNA (SEQ ID NO: 2)) | In vitro Expression RAW [8, 15]
CCCCC/C=C\CCOC(=O)CCCCCN(CCCCCCCCOC(=O)C(CCCCCC)CCCCCCCC)CCOC(=O)NCCCN(CC)CC (centres unmarked) [Lipid 186] | 2.96E+06 | 88 | 0 | 90 | 0.4618 | 122.7 | 1.51E+05 | 14.31 | 2.82E+02 |  |  |  |  |  |  |  |  | 
CCCCCCCCCCC(CCCCCCCC)COC(=O)CCCCCN(CCCCCC(=O)OCC(CCCCCCCC)CCCCCCCCCC)CCCOC(=O)NCCCN(CC)CC (centres unmarked) [Lipid 366] | 3.26E+06 | 84 | 99 | 92 | 0.2572 | 118.4 | 3.39E+05 | −0.4163 | 2.01E+04 |  |  |  |  |  |  |  |  | 
CCCCCCCCCCCOC(=O)CCCCCN(CCCCCC(=O)OCCCCCCCCCCC)CCOC(=O)NCCN(C)C [Lipid 154, undecyl 2-methyl-6-oxo-10-(6-oxo-6-(undecyloxy)hexyl)-7-oxa-2,5,10-triazahexadecan-16-oate] | 1.01E+05 | 106 | 101 | 90 | 0.1144 | 75.25 | 2.59E+05 | 25.23 | 2.36E+03 |  |  |  |  |  |  |  |  | 
CCCCCCCCCC(=O)OCCCCCCCCN(CCCCCCCCOC(=O)CCCCCCCCC)CCOC(=O)NCCN1CCN(C)CC1 [Lipid 205] | 6.61E+05 | 94 | 95 | 94 | 0.1521 | 61.16 | 5.81E+05 | 18.81 | 7.09E+03 |  |  |  |  |  |  |  |  | 
CCCCCCCCC(CCCCCC)C(=O)OCCCCCCCCN(CCCCCCCCOC(=O)C(CCCCCC)CCCCCCCC)CCCOC(=O)NCCN1CCN(C)CC1 (centres unmarked) [Lipid 377] | 8.84E+06 | 71 | 85 | 93 | 0.2338 | 112.8 | 2.55E+06 | 2.594 | 1.05E+05 |  |  |  |  |  |  |  |  | 
CCCCCCCC/C=C\CCCCCCCCN(CCCCCCCCOC(=O)C(CCCCCC)CCCCCCCC)CCOC(=O)NCCN1CCCCC1 (centres unmarked) [Lipid 219] | 1.34E+08 | 58 | 80 | 93 | 0.1125 | 76.57 | 7.09E+05 | 0.7668 | 3.53E+04 |  |  |  |  |  |  |  |  | 
CCCCC/C=C\C/C=C\CCCCCCCCN(CCCCCCCC/C=C\C/C=C\CCCCC)CCOC(=O)NCCN1CCN(C)CC1 [Lipid 37, 2-(di((9Z,12Z)-octadeca-9,12-dien-1-yl)amino)ethyl (2-(4-methylpiperazin-1-yl)ethyl)carbamate] | 1.16E+05 | 87 | 92 | 95 | 0.138 | 145.8 | 5.96E+05 | 4.079 | 1.98E+04 |  |  |  |  |  |  |  |  | 
CCCCCCCCCCCOC(=O)CCCCCN(CCCCCC(=O)OCCCCCCCCCCC)CCOC(=O)NCCCN(C)C [Lipid 153] | 1.02E+05 | 120 | 104 | 89 | 0.09308 | 71.11 | 1.95E+04 | 18.95 | 2.44E+02 |  |  |  |  |  |  |  |  | 
CCCCC/C=C\C/C=C\CCCCCCCCN(CCCCCCCC/C=C\C/C=C\CCCCC)CCOC(=O)CCCN(C)C [Lipid A, reference compound] |  |  |  | 74 | 0.2901 | 145.2 | 1.90E+06 | 1.916 |  | 2.13E+08 | 108 | 96 | 83.95 | 0.2719 | 118 | 3.08E+07 | 10.76 | 5.86E+06
CCCCCCCCCCCOC(=O)CCCCCN(CCCCCCCCOC(=O)C(CCCCCC)CCCCCCCC)CCOC(=O)NCCCN(C)C (centres unmarked) [Lipid 224] | 5.05E+05 | 90 | 73 | 97 | 0.4284 | 86.14 | 3.58E+05 | 27.23 | 6.89E+03 |  |  |  |  |  |  |  |  | 
CCCCCCCCCC(=O)OCCCCCCCN(CCCCCCCCOC(=O)C(CCCCCC)CCCCCCCC)CCCOC(=O)NCc1ncc[nH]1 (centres unmarked) [Lipid 360] | 7.50E+07 | 113 | 86 | 85 | 0.2143 | 82.84 | 1.22E+05 | −2.27 | 1.63E+05 |  |  |  |  |  |  |  |  | 
CCCCC/C=C\CCOC(=O)CCCCCN(CCCCCCCCOC(=O)C(CCCCCC)CCCCCCCC)CCOC(=O)NCCN1CCOCC1 (centres unmarked) [Lipid 188] | 2.17E+07 | 96 | 87 | 88 | 0.07877 | 73.74 | 1.12E+04 | −9.419 | 2.82E+03 |  |  |  |  |  |  |  |  | 
CCCCCCCCCC(=O)OCCCCCCCCN(CCCCCCCCOC(=O)CCCCCCCCC)CCOC(=O)NCc1ncc[nH]1 [Lipid 203] | 6.84E+06 | 103 | 91 | 73 | 0.08783 | 98.65 | 1.12E+04 | −0.09389 | 7.82E+04 |  |  |  |  |  |  |  |  | 
CCCCCCCCCCC(CCCCCCCC)COC(=O)CCCCCN(CCCCCC(=O)OCC(CCCCCCCC)CCCCCCCCCC)CCCOC(=O)NCCN1CCCCCC1 (centres unmarked) [Lipid 373] | 5.62E+06 | 63 | 91 | 92 | 0.2353 | 92.65 | 5.98E+04 | −3.695 | 2.32E+04 |  |  |  |  |  |  |  |  | 
